Consider 24 compounds from US10144742B2 (Millennium Pharmaceuticals, Inc., priority 2014, dated 2018).

In test [1] the target is hNAMPT protein (Homo sapiens (Human), UniProt P43490). Description: NAMPT enzyme assay (TR-FRET/HTRF, BodiPY ligand, anti 6His-Tb). It counts as binding. To be noted: for inhibition at 1 µM: NAMPT inhibition at compound concentration 1 μM, read-out: Percent Inhibition; for pIC50: NAMPT inhibition, IC50 range class, read-out: IC50. Summed up: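 TR-FRET binding assay in which His-tagged human NAMPT with anti-6His-Tb is displaced by compound from a BodiPY ligand, incubated 1 h at rt in the dark. Excitation was at 320 nm, with the 520/486 nm emission ratio read. IC50 was fitted from inhibition relative to DMSO controls.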

In test [2] the test system is PC3 cells. The test is described as follows: PC3 growth inhibition (Cell-titer glo, 72 hours). It counts as cell-based. The note with it: Homo sapiens, PC-3; compound concentration 1.667 μM; PC3 cells, 72 hours, Cell-titer glo; read-out: Percent Inhibition (PC3 growth inhibition). Summed up:
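PC3 cells in RPMI1640 seeded overnight at 37 °C, 5% CO2, then exposed to compound diluted in AIM serum-free medium for 72 h. Viability by CellTiter-Glo luminescence vs DMSO controls; single-concentration % remaining viability (1 μM or 1.667 μM), or GI50/LD50 from curves.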

pIC50: −log10 of the molar value. Where only a bound is given, the exact number is not on record here.

hNAMPT protein, sequence (P43490 whole entry): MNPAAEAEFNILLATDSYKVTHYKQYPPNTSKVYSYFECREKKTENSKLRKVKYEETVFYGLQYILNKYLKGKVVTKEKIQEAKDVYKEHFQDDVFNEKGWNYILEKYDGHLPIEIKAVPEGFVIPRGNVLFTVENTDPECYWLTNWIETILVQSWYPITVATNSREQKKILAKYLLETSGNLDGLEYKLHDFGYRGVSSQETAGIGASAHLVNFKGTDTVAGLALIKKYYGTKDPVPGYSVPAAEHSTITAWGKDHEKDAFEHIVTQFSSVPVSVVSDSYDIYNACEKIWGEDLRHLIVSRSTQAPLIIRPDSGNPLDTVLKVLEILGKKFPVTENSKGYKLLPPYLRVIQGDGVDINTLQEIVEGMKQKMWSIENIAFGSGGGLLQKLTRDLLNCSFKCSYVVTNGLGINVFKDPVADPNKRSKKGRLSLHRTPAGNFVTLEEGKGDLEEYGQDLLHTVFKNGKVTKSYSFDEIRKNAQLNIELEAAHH

Consider `O=C(NCCCc1ncc[nH]1)c1ccc2nc(-c3ccc(F)cc3)c(-c3cc(C(F)(F)F)ccc3F)nc2c1` [Compound I-451, 2-(4-fluorophenyl)-3-[2-fluoro-5-(trifluoromethyl)phenyl]-N-[3-(1H-imidazol-2-yl)propyl]quinoxaline-6-carboxamide], for which, in test [1], the inhibition at 1 µM was determined as 97% and the pIC50 is > 7.00. The inhibition at 1.667 µM in test [2] amounted to 2%.
Consider `CC(C)Oc1nc2ccc(C(=O)NCc3ccc4nccn4c3)cc2nc1-c1ccc(F)cc1` [Compound I-452, 3-(4-Fluorophenyl)-N-(imidazo[1,2-a]pyridin-6-ylmethyl)-2-isopropoxyquinoxaline-6-carboxamide], for which, in test [1], the inhibition at 1 µM was determined as 75% and the negative-log IC50 (pIC50) was 6.30 to 7.00. Also, in test [2], the inhibition at 1.667 µM was 3%.
For `O=C(NCCCc1ncc[nH]1)c1ccc2nc(-n3cnc4ccccc43)c(-c3ccc(F)cc3)nc2c1` [Compound I-453, 2-(1H-benzimidazol-1-yl)-3-(4-fluorophenyl)-N-[3-(1H-imidazol-2-yl)propyl]quinoxaline-6-carboxamide] the same measures were 88%, 6.30 to 7.00 and 3%.
Turning to `O=C(NCCCc1ncc[nH]1)c1ccc2nc(OCc3ccccc3Cl)c(-c3ccc(F)cc3)nc2c1` [Compound I-454, 2-[(2-chlorobenzyl)oxy]-3-(4-fluorophenyl)-N-[3-(1H-imidazol-2-yl)propyl]quinoxaline-6-carboxamide], in test [1], the inhibition at 1 µM turned out to be 95% and the pIC50 is > 7.00. Further, the inhibition at 1.667 µM in test [2] came to 2%.
The matching figures for `O=C(NCCCc1ncc[nH]1)c1ccc2nc(-c3ccc(F)cc3)c(-c3ccc(Cl)cc3F)nc2c1` [Compound I-455, 3-(4-chloro-2-fluorophenyl)-2-(4-fluorophenyl)-N-[3-(1H-imidazol-2-yl)propyl]quinoxaline-6-carboxamide]: 80%, 6.30 to 7.00 and 3%.
The matching figures for `CN(C)C1CCC(Oc2nc3ccc(C(=O)NCCCc4ncc[nH]4)cc3nc2-c2ccc(F)cc2)CC1` (stereo not drawn) [Compound I-456, 2-{[4-(dimethylamino)cyclohexyl]oxy}-3-(4-fluorophenyl)-N-[3-(1H-imidazol-2-yl)propyl]quinoxaline-6-carboxamide]: > 99%, > 7.00 and 2%.
As to `COC1CCN(c2nc3ccc(C(=O)NCCCc4ncc[nH]4)cc3nc2-c2ccc(F)cc2)C1` (stereo not drawn) [Compound I-457, 3-(4-fluorophenyl)-N-[3-(1H-imidazol-2-yl)propyl]-2-(3-methoxypyrrolidin-1-yl)quinoxaline-6-carboxamide], in test [1], the inhibition at 1 µM was determined as 98% and the pIC50 is > 7.00. Moreover, in test [2], the inhibition at 1.667 µM is 2%.
Regarding `N#Cc1cccc(-c2nc3cc(C(=O)NCCCc4ncc[nH]4)ccc3nc2-c2ccc(F)cc2)c1` [Compound I-458, 3-(3-cyanophenyl)-2-(4-fluorophenyl)-N-[3-(1H-imidazol-2-yl)propyl]quinoxaline-6-carboxamide], in test [1], the inhibition at 1 µM worked out at 81% and the pIC50 was 6.30 to 7.00. Further, the inhibition at 1.667 µM in test [2] was 2%.
For `O=C(NCCCc1ncc[nH]1)c1ccc2nc(OCc3ncc[nH]3)c(-c3ccc(F)cc3)nc2c1` [Compound I-459, 3-(4-fluorophenyl)-2-(1H-imidazol-2-ylmethoxy)-N-[3-(1H-imidazol-2-yl)propyl]quinoxaline-6-carboxamide] the same measures were 47%, 6.00 to 6.30 and > 99%.
`Cn1ccc(COc2nc3ccc(C(=O)NCCCc4ncc[nH]4)cc3nc2-c2ccc(F)cc2)n1` [Compound I-460, 3-(4-fluorophenyl)-N-[3-(1H-imidazol-2-yl)propyl]-2-[(1-methyl-1H-pyrazol-3-yl)methoxy]quinoxaline-6-carboxamide]: in test [1], the inhibition at 1 µM stood at 99% and the negative-log IC50 (pIC50) was > 7.00. Also, in test [2], the inhibition at 1.667 µM was 2%.
As to `O=C(NCCCc1ncc[nH]1)c1ccc2nc(-c3ccc(F)cc3)c(-c3ccc4c(c3)OCO4)nc2c1` [Compound I-461, 3-(1,3-benzodioxol-5-yl)-2-(4-fluorophenyl)-N-[3-(1H-imidazol-2-yl)propyl]quinoxaline-6-carboxamide], in test [1], the inhibition at 1 µM was 86% and the pIC50 was 6.30 to 7.00. Also, in test [2], the inhibition at 1.667 µM stood at 2%.
The matching figures for `C#CCOc1nc2ccc(C(=O)NCCCc3ncc[nH]3)cc2nc1-c1ccc(F)cc1` [Compound I-462, 3-(4-fluorophenyl)-N-[3-(1H-imidazol-2-yl)propyl]-2-(prop-2-yn-1-yloxy)quinoxaline-6-carboxamide]: 95%, > 7.00 and 2%.
For `O=C(NCCCc1ncc[nH]1)c1ccc2nc(-c3ccc(F)cc3)c(-c3cccc(Cl)c3)nc2c1` [Compound I-463, 3-(3-chlorophenyl)-2-(4-fluorophenyl)-N-[3-(1H-imidazol-2-yl)propyl]quinoxaline-6-carboxamide] the same measures were 97%, > 7.00 and 3%.
The matching figures for `O=C(NCc1nc2cnccc2[nH]1)c1ccc2nc(-c3ccc(F)cc3)c(-c3ccc(F)cc3)nc2c1` [Compound I-464, 2,3-bis(4-fluorophenyl)-N-(1H-imidazo[4,5-c]pyridin-2-ylmethyl)quinoxaline-6-carboxamide]: > 99%, > 7.00 and 0%.
For the compound `O=C(NCCCc1ncc[nH]1)c1ccc2nc(N3CCCC3)c(-c3ccc(F)cc3)nc2c1` [Compound I-465, 3-(4-fluorophenyl)-N-[3-(1H-imidazol-2-yl)propyl]-2-(pyrrolidin-1-yl)quinoxaline-6-carboxamide], in test [1], the inhibition at 1 µM came out at 98% and the pIC50 is > 7.00. In test [2], the inhibition at 1.667 µM turned out to be 2%.
The matching figures for `COc1cc(-c2nc3cc(C(=O)NCCCc4ncc[nH]4)ccc3nc2-c2ccc(F)cc2)c(F)cn1` [Compound I-466, 3-(5-fluoro-2-methoxy-4-pyridyl)-2-(4-fluorophenyl)-N-[3-(1H-imidazol-2-yl)propyl]quinoxaline-6-carboxamide]: 95%, > 7.00 and 2%.
For `COc1ccc(C)c(-c2nc3cc(C(=O)NCCCc4ncc[nH]4)ccc3nc2-c2ccc(F)cc2)c1` [Compound I-467, 2-(4-fluorophenyl)-N-[3-(1H-imidazol-2-yl)propyl]-3-(5-methoxy-2-methylphenyl)quinoxaline-6-carboxamide] the same measures were 94%, > 7.00 and 2%.
The matching figures for `O=C(NCCCc1ncc[nH]1)c1ccc2nc(O[C@H]3CCOC3)c(-c3ccc(F)cc3)nc2c1` [Compound I-468, 3-(4-fluorophenyl)-N-[3-(1H-imidazol-2-yl)propyl]-2-[(3S)-tetrahydrofuran-3-yloxy]quinoxaline-6-carboxamide]: 99%, > 7.00 and 2%.
On to `O=C(NCCCc1ncc[nH]1)c1ccc2nc(OCc3nccs3)c(-c3ccc(F)cc3)nc2c1` [Compound I-469, 3-(4-fluorophenyl)-N-[3-(1H-imidazol-2-yl)propyl]-2-(1,3-thiazol-2-ylmethoxy)quinoxaline-6-carboxamide], for which, in test [1], the inhibition at 1 µM is 98% and the negative-log IC50 (pIC50) is > 7.00. Moreover, the inhibition at 1.667 µM in test [2] came to 2%.
For `COc1ccc(-c2nc3cc(C(=O)NCCCc4ncc[nH]4)ccc3nc2-c2ccc(F)cc2)cc1F` [Compound I-470, 3-(3-fluoro-4-methoxyphenyl)-2-(4-fluorophenyl)-N-[3-(1H-imidazol-2-yl)propyl]quinoxaline-6-carboxamide] the same measures were 81%, 6.30 to 7.00 and 2%.
For `Cc1cc(-c2nc3cc(C(=O)NCCCc4ncc[nH]4)ccc3nc2-c2ccc(F)cc2)ccc1F` [Compound I-471, 3-(4-fluoro-3-methylphenyl)-2-(4-fluorophenyl)-N-[3-(1H-imidazol-2-yl)propyl]quinoxaline-6-carboxamide] the same measures were > 99%, > 7.00 and 2%.
The matching figures for `Cc1ccc(C#N)cc1-c1nc2cc(C(=O)NCCCc3ncc[nH]3)ccc2nc1-c1ccc(F)cc1` [Compound I-472, 3-(5-cyano-2-methylphenyl)-2-(4-fluorophenyl)-N-[3-(1H-imidazol-2-yl)propyl]quinoxaline-6-carboxamide]: 98%, > 7.00 and 2%.
Turning to `Cc1ccc(-c2nc3cc(C(=O)NCCCc4ncc[nH]4)ccc3nc2-c2ccc(F)cc2)s1` [Compound I-473, 2-(4-fluorophenyl)-N-[3-(1H-imidazol-2-yl)propyl]-3-(5-methyl-2-thienyl)quinoxaline-6-carboxamide], in test [1], the inhibition at 1 µM worked out at 85% and the pIC50 is 6.30 to 7.00. The inhibition at 1.667 µM in test [2] worked out at 3%.
Consider `O=C(NCCCc1ncc[nH]1)c1ccc2nc(-c3ccc(F)cc3)c(-c3ccc(F)c(F)c3)nc2c1` [Compound I-474, 3-(3,4-difluorophenyl)-2-(4-fluorophenyl)-N-[3-(1H-imidazol-2-yl)propyl]quinoxaline-6-carboxamide], for which, in test [1], the inhibition at 1 µM turned out to be 95% and the pIC50 is 6.30 to 7.00. The inhibition at 1.667 µM in test [2] was determined as 3%.
